Measurements from ChEMBL document CHEMBL3714768 (2012).

Legend:
[1] = Cytotoxicity against human HCT116 cells by fluorescent Calcein-AM assay; format: functional, cell-based; details: hct-116
MCF7 = assay: Cytotoxicity against human MCF7 cells by fluorescent Calcein-AM assay; format: functional, cell-based
[2] = Selectivity index, ratio of IC50 for purified human red blood cell PP2A (unknown origin) to IC50 for purified rabbit skeletal muscle PP1
[3] = Cytotoxicity against human DU145 cells by fluorescent Calcein-AM assay; format: functional, cell-based; details: du-145
[4] = target: Serine/threonine-protein phosphatase PP1-alpha catalytic subunit (Oryctolagus cuniculus, UniProt P62139); assay: Inhibition of purified rabbit skeletal muscle protein phosphatase 1 using DiFMUP substrate incubated for 30 mins
Chain of Serine/threonine-protein phosphatase PP1-alpha catalytic subunit (P62139 whole entry): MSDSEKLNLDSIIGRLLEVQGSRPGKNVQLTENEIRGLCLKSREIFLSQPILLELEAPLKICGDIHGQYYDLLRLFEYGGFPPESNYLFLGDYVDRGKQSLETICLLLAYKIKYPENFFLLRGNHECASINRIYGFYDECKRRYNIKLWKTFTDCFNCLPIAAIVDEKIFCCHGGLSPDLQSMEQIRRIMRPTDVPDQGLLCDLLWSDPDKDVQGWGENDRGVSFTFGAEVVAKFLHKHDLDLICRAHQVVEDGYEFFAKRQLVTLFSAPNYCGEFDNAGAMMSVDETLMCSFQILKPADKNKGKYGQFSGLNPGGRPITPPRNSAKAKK

| SMILES | IC50 [1] | IC50 (MCF7) | Ratio IC50 [2] | IC50 [3] | IC50 [4] [µM] |
| --- | --- | --- | --- | --- | --- |
| CCC(/C=C/C(=O)O)=C\CC[C@H](C)C[C@@H](C)CC[C@H](O)[C@H](C)C(=O)C[C@@H](O)[C@H](C)[C@@H](C)OC(=O)C[C@@H](O)C1=C(C)C(=O)OC1=O | Not Active | Not Active | 4 | Not Active | – |
| CCC(/C=C/C(=O)O)=C\[C@H](O)C[C@H](C)C[C@@H](C)CC[C@H](O)[C@H](C)C(=O)C[C@@H](O)[C@H](C)[C@@H](C)OC(=O)C[C@@H](O)C1=C(C)C(=O)OC1=O | – | – | 3.8 | – | – |
| CC/C(=C\CC[C@H](C)C[C@@H](C)CC[C@H](O)[C@H](C)C(=O)C[C@@H](O)[C@H](C)[C@@H](C)OC(=O)C[C@@H](O)C1=C(C)C(=O)OC1=O)C(O)CC(=O)O (some centres undefined) | Not Active | Not Active | 3.8 | Not Active | – |
| CCC(/C=C/C(=O)O)=C\[C@@H](O)C[C@H](C)C[C@@H](C)CC[C@H](O)[C@H](C)C(=O)C[C@@H](O)[C@H](C)[C@@H](C)OC(=O)C[C@@H](O)C1=C(C)C(=O)OC1=O | Not Active | Not Active | 4.5 | Not Active | – |
| CCC(/C=C/C(=O)O)=C\C(=O)C[C@H](C)C[C@@H](C)CC[C@H](O)[C@H](C)C(=O)C[C@@H](O)[C@H](C)[C@@H](C)OC(=O)C[C@@H](O)C1=C(C)C(=O)OC1=O | – | – | – | – | 28 |
